The text below walks through data of EP3156398A1, “AGONISTS OF THE CHEMOKINE RECEPTOR CXCR3” (Friedrich-Alexander-Universität Erlangen-Nürnberg, priority 2015, dated 2017).

One assay deals with T1, CXCR3-PK1 (Homo sapiens, UniProt P49682).
T1 construct: expressed in transfected cells; host or cells: HEK293 cells stably expressing beta-gal enzyme acceptor (PathHunter, DiscoveRx), transiently transfected
T1 sequence (P49682 1-368): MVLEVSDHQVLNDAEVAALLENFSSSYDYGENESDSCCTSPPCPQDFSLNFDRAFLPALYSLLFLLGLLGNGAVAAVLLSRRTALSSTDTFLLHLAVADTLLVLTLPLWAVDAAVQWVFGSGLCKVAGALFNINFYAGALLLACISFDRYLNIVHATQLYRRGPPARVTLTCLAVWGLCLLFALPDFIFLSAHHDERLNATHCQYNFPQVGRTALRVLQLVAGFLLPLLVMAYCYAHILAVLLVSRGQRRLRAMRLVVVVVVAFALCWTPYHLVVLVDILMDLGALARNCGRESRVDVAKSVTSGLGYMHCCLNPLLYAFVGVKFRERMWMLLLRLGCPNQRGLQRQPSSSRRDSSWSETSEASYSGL
The assay can be described thus: β-arrestin 2 recruitment assay (PathHunter, DiscoveRx), CXCR3-PK1 construct. The note with it: for CXCR3-PK1 pEC50 ± SEM: HEK293-T cells, PathHunter, two to three experiments in triplicate. Format: cell-based. The protocol: β-arrestin 2 recruitment assay: The measurement of β-arrestin recruitment was performed utilizing the PathHunter assay purchased from DiscoveRx (DiscoveRx, Birmingham, U.K.) according to the manufacturer's protocol. HEK293 cells stably expressing β-gal enzyme acceptor were transiently transfected with the ProLink (PK1) tagged wildtype CXCR3 receptor using the TransIT-293 transfection reagent from Mirus (purchased from MoBiTec, Goettingen, Germany). The assay was carried out in 384-well plates containing 2000 cells in 20 µL. After incubation at 37°C (5% CO2, 95% relative humidity) overnight, various concentrations of test compounds or CXCL11 (prepared in PBS, pH 7.4, containing 0.20% BSA) were added and the incubation continued for 4 h. Detection mix was then added and incubated for further 60 min at room temperature. Chemiluminescence was determined with a microplate reader Clariostar (BMG labtech, Ortenberg, Germany).
The ability of the novel ligands according to the present invention to induce CXCR3-mediated β-arrestin 2 recruitment was investigated in the assay system PathHunter (DiscoveRx), which detects the recruitment of β-amestin 2 to the activated receptor using β-galactosidase (β-gal) enzyme fragment complementation. The inventors used two different ProLink tags, ProLink1 (PK1) and ProLink2 (PK2), of which PK2 has higher affinity for the enzyme acceptor to detect weak protein-protein interactions. The CXCR3-PK2 construct is readily able to detect the differences in the propensity of CXCL11 and CXCL10 to induce β-arrestin 2 recruitment at CXCR3. […] Table 3. Ability of the 46/VUF10661 based positive allosteric modulators to activate the CXCR3 as measured in the β-arrestin 2 recruitment assay (PathHunter, DiscoveRx).[a]
On the technique in general: Recruitment of arrestin is a read-out of receptor activation apart from second messengers.

A further assay concerns the target T2, CXCR3 (Homo sapiens, UniProt P49682).
T2 construct: expressed in transfected cells; host or cells: HEK293 / HEK293T cells, stably transfected; membrane preparations
T2 sequence (P49682 1-368): T1 sequence (P49682 1-368)
The experiment in a line: [35S]GTPγS incorporation assay. Format: biochemical. The note with it: for Emax: read-out: CXCR3 Efficacy (%) ± SEM; for CXCR3 pEC50 ± SEM: mean of three experiments in triplicate; for CXCR3 mediated G protein activation (result in words): [35S]GTPγS incorporation. The protocol: Membrane preparation for allosteric radioligand RAMX3 displacement and [^35S]GTPγS incorporation assays: The human embryonic kidney (HEK) cells stably expressing the human CXCR3 receptor were cultured in 150-mm cell culture plates in DMEM/F-12 supplemented with 10% fetal bovine serum (FBS), 2 mM L-glutamine, 1% penicillin-streptomycin, 300 µgmL^-1 Zeocin and incubated at 37 °C in a humid atmosphere with 5% CO2. At 100% confluency cells were washed with PBS twice, treated with Tris EDTA buffer (10 mM Tris, 0.5 mM EDTA, 5 mM KCl, 140 mM NaCl, pH 7.4), and harvested using a cell scraper. Cells were pelleted at 1100×g for 8 min at 4 °C, resuspended in Tris-EDTA-MgCl2 buffer (50mM Tris, 5 mM EDTA, 1.5 mM CaCl2, 5 mM MgCl2, 5 mM KCl, 120 mM NaCl, pH 7.4) and followed by lysis with an Ultra-Turrax. After centrifugation at 50,000•g, at 4°C for 18 min the membranes were resuspended in the binding buffer (50 mM Tris, 1 mM EDTA, 5 mM MgCl2 and subsequently homogenized with a glass-Teflon homogenizer (20 strokes). The homogenized membranes were shock-frozen in liquid nitrogen and stored at -80°C. The protein concentration was determined with the Lowry method with bovine serum albumin used as a standard.^35
[^35S]GTPγS incorporation assay: The [^35S]GTPγS incorporation assay was performed on membrane preparations of stably transfected HEK293 cells that expressed the CXCR3 receptor. The assay was carried out in 96-well plates at the final volume of 200 µL. The incubation buffer contained 20 mM HEPES, 10 mM MgCl2•6H20,100 mM NaCl and 100 mg/L saponin (pH 7.4). Membranes (30 µgmL^-1 of membrane protein), various concentrations of test compound and CXCL11, and 1 µM GDP were preincubated in the absence of [^35S]GTPγS for 30 min at 37 °C. After the addition of 0.10 nM [^35S]GTPγS membranes were incubated for additional 30 min at 37 °C. Incubation was terminated by filtration through Whatman GF/B filters soaked with ice cold PBS. The filter-bound radioactivity was measured as described above. Three to four experiments per compound were performed with each concentration in triplicate.
The activation of G proteins was explored in terms of CXCR3 mediated [^35S]GTPγS incorporation. In the [^35S]GTPγS incorporation assay the membrane preparations of HEK293T cells stably expressing CXCR3 were used. The activation of G proteins was monitored as the incorporation of [^35S]GTPγS and thus increase in the incorporated radioactivity. The potency and efficacy of the novel compounds was first compared to the reference compound 46/VUF10661. […] Table 1. The ability of the 46/VUF10661 based positive allosteric modulators to activate CXCR3 as measured in the [35S]GTPγS incorporation assay.[a]
A general note: GTPγS is a poorly hydrolysed GTP analogue; its binding reports G protein activation.

The mark [1] stands for this setting: % of CXCL11 mediated effect, membrane preparations of HEK293T stably expressing CXCR3.
[2] abbreviates: membrane preparations of HEK293T stably expressing CXCR3.

Read-outs that look alike come from different tables or passages of the source.

Turning to `CC(C)(C)OC(=O)N[C@@H](CCCCNC(=O)[C@@H]1Cc2ccccc2CN1C(=O)CCC(=O)c1ccc(F)cc1)C(=O)NCC(c1ccccc1)c1ccccc1` [Compound 13, Tert-butyl ((S)-1-((2,2-diphenylethyl)amino)-6-((S)-2-(4-(4-fluorophenyl)-4-oxobutanoyl)-1,2,3,4-tetrahydroisoquinoline-3-carboxamido)-1-oxohexan-2-yl)carbamate], at CXCR3-PK1, the “β-arrestin 2 recruitment, intrinsic agonism (result in words)” value (“β-arrestin 2 recruitment” for short) was “complete loss of intrinsic agonistic properties” and the “CXCR3-PK1 pEC50 ± SEM” value was “No effect”. In addition, the Emax at CXCR3 (setting [1]) stood at 20 ± 3%. For the same compound, the “CXCR3 pEC50 ± SEM” value at CXCR3 (setting [2]) is recorded as 6.29±0.31.

For `CC(C)(C)OC(=O)N[C@@H](CCCCNC(=O)[C@@H]1Cc2ccccc2CN1C(=O)CCC(=O)c1ccc(S(C)(=O)=O)cc1)C(=O)NCC(c1ccccc1)c1ccccc1` [Compound 15, Tert-butyl ((S)-1-((2,2-diphenylethyl)amino)-6-((S)-2-(4-(4-(methylsulfonyl)phenyl)-4-oxobutanoyl)-1,2,3,4-tetrahydroisoquinoline-3-carboxamido)-1-oxohexan-2-yl)carbamate], on CXCR3-PK1, the “β-arrestin 2 recruitment” value is reported as “complete loss of intrinsic agonistic properties” and the “CXCR3-PK1 pEC50 ± SEM” value is on record as “No effect”. For the same compound, at CXCR3 (setting [1]), the Emax is 25 ± 3%. Moreover, the “CXCR3 pEC50 ± SEM” value on CXCR3 (setting [2]) is 5.91±0.20.

On to `CC(C)(C)OC(=O)N[C@@H](CCCCNC(=O)[C@@H]1Cc2ccccc2CN1C(=O)CCC(=O)N1CCCCC1)C(=O)NCC(c1ccccc1)c1ccccc1` [Compound 16, Tert-butyl ((S)-1-((2,2-diphenylethyl)amino)-1-oxo-6-((S)-2-(4-oxo-4-(piperidin-1-yl)butanoyl)-1,2,3,4-tetrahydroisoquinoline-3-carboxamido)hexan-2-yl)carbamate], for which, on CXCR3-PK1, the “CXCR3-PK1 pEC50 ± SEM” value is reported as “No effect”. Moreover, the “CXCR3 Efficacy (%) ± SEM” value at CXCR3 (setting [1]) is listed as “No effect”. The “CXCR3 mediated G protein activation (result in words)” value (shortened to “CXCR3 mediated G protein activation”) on CXCR3 is “no reactivity was observed”. On CXCR3 (setting [2]), the “CXCR3 pEC50 ± SEM” value is listed as “No effect”.

As to `CC(C)(C)OC(=O)N[C@@H](CCCCNC(=O)[C@@H]1Cc2ccccc2CN1C(=O)CCC(=O)N1CCOCC1)C(=O)NCC(c1ccccc1)c1ccccc1` [Compound 17, Tert-butyl ((S)-1-((2,2-diphenylethyl)amino)-6-((S)-2-(4-moipholino-4--oxobutanoyl)-1,2,3,4-tetrahydroisoquinoline-3-carboxamido)-1-oxohexan-2 yl)carbamate], on CXCR3-PK1, the “CXCR3-PK1 pEC50 ± SEM” value is recorded as “No effect”. The “CXCR3 Efficacy (%) ± SEM” value on CXCR3 (setting [1]) is listed as “No effect”. Further, the “CXCR3 mediated G protein activation” value at CXCR3 is given as “no effect”. In addition, on CXCR3 (setting [2]), the “CXCR3 pEC50 ± SEM” value is reported as “No effect”.

Consider `CN1CCN(C(=O)CCC(=O)N2Cc3ccccc3C[C@H]2C(=O)NCCCC[C@H](NC(=O)OC(C)(C)C)C(=O)NCC(c2ccccc2)c2ccccc2)CC1.O=C(O)C(F)(F)F` [Compound 18, 4-(4-((S)-3-(((S)-5-((tert-butoxycarbonyl)amino)-6-((2,2-diphenylethyl)amino)-6-oxohexyl)carbamoyl)-3,4-dihydroisoquinolin-2(1H)-yl)-4-oxobutanoyl)-1-methylpiperazin-1-ium 2,2,2-trifluoroacetate], for which the “CXCR3-PK1 pEC50 ± SEM” value on CXCR3-PK1 is “No effect”. For the same compound, the “CXCR3 Efficacy (%) ± SEM” value at CXCR3 (setting [1]) is recorded as “No effect”. In addition, the “CXCR3 mediated G protein activation” value on CXCR3 was “no effect”. The “CXCR3 pEC50 ± SEM” value at CXCR3 (setting [2]) was “No effect”.

Turning to `CC(C)(C)OC(=O)N[C@@H](CCCCNC(=O)[C@@H]1Cc2ccccc2CN1C(=O)CCC(=O)c1cccs1)C(=O)NCC(c1ccccc1)c1ccccc1` [Compound 19, Tert-butyl ((S)-1-((2,2-diphenylethyl)amino)-1-oxo-6-((S)-2-(4-oxo-4-(thiophen-2-yl)butanoyl)-1,2,3,4-tetrahydroisoquinoline-3-carboxamido)hexan-2-yl)carbamate], the “CXCR3-PK1 pEC50 ± SEM” value at CXCR3-PK1 is reported as “No effect”. Also, the “CXCR3 Efficacy (%) ± SEM” value at CXCR3 (setting [1]) was “No effect”. Further, the “CXCR3 pEC50 ± SEM” value on CXCR3 (setting [2]) is listed as “No effect”.

`CC(C)(C)OC(=O)N[C@@H](CCCCNC(=O)[C@@H]1Cc2ccccc2CN1C(=O)CCC(=O)c1ccco1)C(=O)NCC(c1ccccc1)c1ccccc1` [Compound 20, Tert-butyl ((S)-1-((2,2-diphenylethyl)amino)-6-((S)-2-(4-(furan-2-yl)-4-oxobutanoyl)-1,2,3,4-tetrahydroisoquinoline-3-carboxamido)-1-oxohexan-2-yl)carbamate]: at CXCR3-PK1, the “CXCR3-PK1 pEC50 ± SEM” value is reported as “No effect”. Further, the “CXCR3 Efficacy (%) ± SEM” value on CXCR3 (setting [1]) is recorded as “No effect”. The “CXCR3 pEC50 ± SEM” value at CXCR3 (setting [2]) was “No effect”.

Turning to `COc1ccc(C(=O)CCC(=O)N2Cc3ccccc3C[C@H]2C(=O)NCCCC[C@H](NC(=O)OC(C)(C)C)C(=O)NCC(c2ccccc2)c2ccccc2)cc1OC` [Compound 21, Tert-butyl ((S)-6-((S)-2-(4-(3,4-dimethoxyphenyl)-4-oxobutanoyl)-1,2,3,4-tetrahydroisoquinoline-3-carboxamido)-1-((2,2-diphenylethyl)amino)-1-oxohexan-2-yl)carbamate], at CXCR3-PK1, the “β-arrestin 2 recruitment” value was “complete loss of intrinsic agonistic properties” and the “CXCR3-PK1 pEC50 ± SEM” value is recorded as “No effect”. Further, on CXCR3 (setting [1]), the “CXCR3 Efficacy (%) ± SEM” value worked out at 18±1% and the Emax worked out at 18%. Further, the “CXCR3 pEC50 ± SEM” value at CXCR3 (setting [2]) was 7.30±0.17.

Regarding `CC(C)(C)OC(=O)N[C@@H](CCCCNC(=O)[C@@H]1Cc2ccccc2CN1C(=O)CCCc1ccccc1)C(=O)NCC(c1ccccc1)c1ccccc1` [Compound 22, Tert-butyl ((S)-1-((2,2-diphenylethyl)amino)-1-oxo-6-((S)-2-(4-phenylbutanoyl)-1,2,3,4-tetrahydroisoquinoline-3-carboxammido)hexan-2-yl)carbamate], the “CXCR3-PK1 pEC50 ± SEM” value on CXCR3-PK1 is “No effect”. Also, the “CXCR3 pEC50 ± SEM” value at CXCR3 (setting [2]) amounted to 5.07±0.50. Moreover, at CXCR3, the Emax was 29 ± 15%.
